Experimental findings from patent publication US8143254B2, “Methods for modulating ion channels” (Cornell Research Foundation, Inc., priority 2005, dated 2012) are described below.

The experiment deals with T1, MiRP2-Kv2.1 (Rattus norvegicus, UniProt P15387).
T1 construct: expressed in transfected cells; host or cells: Xenopus oocytes (co-injected cRNA)
T1 sequence (P15387 1-857): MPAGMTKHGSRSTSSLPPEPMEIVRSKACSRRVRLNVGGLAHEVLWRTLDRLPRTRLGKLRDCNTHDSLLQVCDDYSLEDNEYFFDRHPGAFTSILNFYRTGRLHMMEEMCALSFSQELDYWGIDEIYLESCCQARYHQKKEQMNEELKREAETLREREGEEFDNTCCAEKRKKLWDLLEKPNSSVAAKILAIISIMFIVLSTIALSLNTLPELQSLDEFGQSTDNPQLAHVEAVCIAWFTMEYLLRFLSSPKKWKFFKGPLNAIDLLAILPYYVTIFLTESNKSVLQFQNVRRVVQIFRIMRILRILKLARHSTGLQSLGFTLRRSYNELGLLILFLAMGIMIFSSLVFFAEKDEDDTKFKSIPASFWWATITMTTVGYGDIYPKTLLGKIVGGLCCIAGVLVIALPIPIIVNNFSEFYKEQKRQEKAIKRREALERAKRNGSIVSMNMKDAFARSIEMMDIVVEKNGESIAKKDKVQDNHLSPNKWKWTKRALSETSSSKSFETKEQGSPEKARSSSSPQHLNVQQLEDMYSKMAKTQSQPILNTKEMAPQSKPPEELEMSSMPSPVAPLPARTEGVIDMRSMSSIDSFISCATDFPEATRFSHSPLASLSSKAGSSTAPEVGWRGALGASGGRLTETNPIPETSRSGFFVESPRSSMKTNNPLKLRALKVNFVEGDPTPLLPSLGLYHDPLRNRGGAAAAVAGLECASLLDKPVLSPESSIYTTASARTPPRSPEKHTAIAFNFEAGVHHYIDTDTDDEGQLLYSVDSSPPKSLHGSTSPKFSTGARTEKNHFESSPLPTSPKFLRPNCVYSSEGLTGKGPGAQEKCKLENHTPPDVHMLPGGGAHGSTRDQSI
T1 sequence (Q9Y6H6 1-103 partner): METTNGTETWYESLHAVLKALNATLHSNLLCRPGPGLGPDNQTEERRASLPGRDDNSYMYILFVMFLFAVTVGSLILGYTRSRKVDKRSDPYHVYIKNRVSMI
Nature of the experiment: TEVC of Xenopus oocytes co-injected with Kv2.1 and MiRP2 cRNA. Format: cell-based. The settings on record: for p (Hill slope) of logistic dose-response fit: MiRP2-Kv2.1; for effect of MiRP2 on sensitivity of Kv2.1 to the compound: MiRP2-Kv2.1 versus Kv2.1 alone. The procedure: Stage V-VI Xenopus oocytes are separated into small groups using forceps, defolliculated by agitation in Ca^2+-free Ringer solution containing collagenase for one hour, washed, then stored at 15° C. in full Ringers solution before injection. cRNA sufficient to give 1-10 μA of current at physiological voltages for each channel type is injected into Xenopus oocytes (selected by appearance for overall health and uniformity of color) using a Sutter manual injector (typically 0.1-5 ng cRNA in a volume of 25-50 nl). The oocytes are then stored for 1-3 days at 15° C. before TEVC recording. Beta subunit cRNA is co-injected as appropriate, typically 2 ng per oocyte.
Whole cell oocyte experiments are performed using a Warner OC-725C amplifier and pClamp9 software with oocytes bathed in a small-volume Warner oocyte bath and viewed with a Fisher dissection microscope. Bath solution for whole cell oocyte recordings, e.g., for potassium channel analysis, is generally (in mM): 96 NaCl, 4 KCl, 1 MgCl2, 0.3 CaCl2, 10 HEPES (Ph 7.4); whole-cell oocyte TEVC pipettes are filled with 3 M KCl. Oocyte patches are studies using an Axon Instruments small-volume bath, viewed with an Olympus IX50 inverted microscope, and recordings made using an Axon Multiclamp 700 A Amplifier and pCLAMP9 software (Axon Instruments). Extracellular solution, e.g., for potassium channel analysis, is generally (in mM): 135 NaCl, 5 KCl, 1.2 MgCl2, 5 HEPES, 2.5 CaCl2, 10 D-glucose (Ph 7.4). Intracellular solution, e.g., for potassium channel analysis, is generally (in mM): 10 NaCl, 117 KCl, 2 MgCl2, 11 HEPES, 11 EGTA, ICaCl2 (Ph 7.2). Patch pipettes are approximately 3-5 MΩ resistance when filled with recording solution.
Quantitative aspects of ion action on ion channels are compared using standard pulse protocols. Pulse times and voltages will vary according to which currents are being studied. I/V and G/V curves are typically fit to a standard Boltzmann function: 1/{1+exp[(V1/2−V)/Vs]}, where V1/2 is the half-maximal voltage of activation and Vs the slope factor, for quantification and comparison. Kinetics of drug effects upon wash-in are generally fit with single or multiple exponential functions and values for τ and amplitude reported. Drug inhibition constants are calculated after generating a dose response curve by fitting with a logistic dose-response function (see equation (i) below). Typically, 5-20 cells per group are recorded from for heterologous expression experiments. Values are to be stated as mean±SEM with statistical significance set at p<0.05 (unpaired students t-test, ANOVA or the Mann-Whitney Rank Sum Test as appropriate).
Injected oocytes, bathed in bath solution containing 4 mM KCl, unless otherwise stated, are impaled with current and voltage electrodes and clamped at −80 mV holding potential using a Warner OC-725C amplifier. For single-voltage dose-response assessment, currents are recorded for several pulses (each of 1-5 s at a frequency of 0.1 Hz depending upon channel type) in the absence of drug, until equilibrium current level is reached, and then during further pulses with bath application of various concentrations of drug, each until equilibrium current inhibition is observed, with a washout phase in between to eliminate the possibility of channel run-down and other non-drug effects. […] Drug concentrations are chosen to ensure inhibition values between 0 and 90-100% with at least 3 values within the linear portion of the curve so that the inhibition constant (Ki) can be calculated accurately by fitting with a logistic dose-response function (formula (i)) using the Origin 6.1 graph package.
We explored blocking effects on Kv2.1 with and without the MiRP2 ancillary subunit. Kv2.1 can co-assemble with MiRP2 in rat brain. The sensitivities of two diammonium compounds (JE188 and TA279) were analyzed by functional expression in Xenopus oocytes using two-electrode voltage clamp (TEVC), and bath application of the compounds at various concentrations. […]

The structures appear in SMILES notation. Read-outs that look alike come from different tables or passages of the source.

Consider `CCCCCCCCCCCC[N+]12CCN(CC1)CC2` [JE188, 1-aza-4-azonia-4-dodecylbicyclo[2.2.2]octane], for which the “p (Hill slope) of logistic dose-response fit” value turned out to be 1.6±0.2 and the “effect of MiRP2 on sensitivity of Kv2.1 to the compound” value is reported as “two-fold decrease in sensitivity”. In addition, where the note is “MiRP2-Kv2.1, external bath application, read-out: x0 of logistic dose-response fit of current inhibition (converted)”, the IC50 was 49.2 ± 8.2 µM.

As to `CCCCCCCCCCCCCCCC[N+]12CCN(CC1)CC2` [TA279, 1-aza-4-azonia-4-hexadecylbicyclo[2.2.2]octane], the IC50 was found to be 1.3 ± 0.4 µM, the “p (Hill slope) of logistic dose-response fit” value was 0.8±0.2 and the “effect of MiRP2 on sensitivity of Kv2.1 to the compound” value is listed as “did not significantly alter inhibition”.
